Patent US20250313544A1, “INHIBITORS OF GLUTATHIONE S-TRANSFERASE ZETA 1 (GSTZ1) AND METHODS OF USE” (H. LEE MOFFITT CANCER CENTER AND RESEARCH INSTITUTE, INC., priority 2022, published 2025)

How the values were obtained:
[1] = test system: H1792 cells; assay: In-gel fluorescence analysis of probe-labeled proteins after photocrosslinking in live H1792 cells; type: binding, human; settings: compared to vehicle
Experimental: Cells were grown in 10 cm dishes to ˜90% confluence at the time of treatment. Cells were carefully washed twice with Dulbecco's phosphate buffered saline (DPBS) and replenished with fresh serum-free RPMI 1640 media containing indicated probes ([…]), competitors, or DMSO. Without competitors, cells were incubated with probes for 30 min at 37° C. and then exposed to 365 nm UV light for 15 min on ice. With competitors, cells were pre-treated with competitors for 30 min and photoactivated for 15 min. Probes were then added to cells for an additional 30 min incubation. For no UV experiments, cells were incubated for 15 min under ambient light. Cells were harvested in cold DPBS and pellets were washed with cold DPBS (2 X). Pellets were either directly processed or kept frozen at −80° C. until use. Cells pellets were lysed for 30 min in cold DPBS (100-300 uL) per culture dish supplemented with 1% NP-40, followed by sonication (5 pulses, 4 s on, 20 s off, output setting=4). Lysates were centrifuged at 20,817×g for 20 min, and supernatant (soluble proteome) was used for further processing. Protein concentrations were determined using Bradford assays.
To 1 mg of protein, were added a mixture of TBTA (Tris((1-benzyl-4-triazolyl)methyl)amine, 60 μL/sample, 1.7 mM in 1:4 DMSO: t-BuOH stock), CuSO4 (20 μL/sample, 50 mM in H2O), TCEP (tris(2-carboxyethyl) phosphine, 20 μL/sample, 50 mM in DPBS, made fresh) and Biotin-Azide conjugate (10 μL/sample, 10 mM in DMSO stock). Each sample was rotated at room temperature for 2 h. To each resultant a cold 4:1 mixture (600 μL) of methanol (MeOH)/chloroform (CHCl3) was added followed by cold PBS (100 μL) on ice. The resulting cloudy mixture was centrifuged (5,000×g, 10 min, 4° C.) to fractionate the protein interface from the organic and aqueous solvent layers. A MeOH:CHCl3 (1:1, 1 mL, 2×) mixture was used to wash protein discs thoroughly. Protein discs were sonicated in cold 4:1 MeOH:CHCl3 (2 mL) mixture. The remaining precipitate was pelleted by centrifugation (5,000×g, 10 min, 4° C.). […] Gels were subjected to fluorescence imaging or Western Blotting.

[2] = test system: H1792 cells harboring KRAS G12C; assay: Cell viability assay (CellTiter-Glo) in H1792 cells; type: cell-based, human; settings: probe combined with sotorasib in H1792 cells, dose of 50 μM (FIG. 9D)
Experimental: (§1) Cells were seeded in Corning 384-well black walled/clear bottom microplates with a density of 1,000 cells/well and treated with indicated drugs and concentrations following cell attachment for 24 h. After 72 h or 96 h, as indicated, cell viability was evaluated with CellTiter-Glo (Promega, Madison, WI) according to manufacturer's recommendations. An M5 Spectramax plate reader (Molecular devices) was used to read the plates with 500 ms integration. Data was processed and analyzed using Excel and GraphPad Prism 9.0.

[3] = test system: H520 cells harboring amplified FGFR1; assay: Cell viability assay (CellTiter-Glo) in H520 cells; type: cell-based, human; settings: probe combined with infigratinib in H520 cells, dose of 5 μM (FIG. 9E)
Experimental: as §1

C#CCCC1(CCC(=O)N2CCC(COc3nc4ccccc4nc3C)CC2)N=N1 [Probe 17, 3-(3-(but-3-yn-1-yl)-3H-diazirin-3-yl)-1-(4-(((3-methylquinoxalin-2-yl)oxy)methyl)piperidin-1-yl)propan-1-one]
proteome labeling by probe (in-gel fluorescence) [1]: efficiently labeled a wide range of proteins | sensitization of cells towards sotorasib [2]: significantly enhanced the sensitivity | sensitization of cells towards infigratinib [3]: significantly enhanced the sensitivity
